target: Ba/F3 (EGFR^L858R/T790M/C797S) cells (Homo sapiens, UniProt P00533, T790M/C797S/L858R, cells depend on it); test: Antiproliferative activity on Ba/F3 (EGFR L858R/T790M/C797S) cells (CTG); assay type: cell-based; conditions: 72h incubation, CTG luminescence, read-out: IC50 (nM), antiproliferative activity
Method: 30 nL of the compound dilution was added to a 384-well plate by Echo (Labcyte, Echo550).
The percent inhibition rate (% inhibition) was calculated by the following formula
[formula] • LUMcmpd: Luminescence value of assay compound. • LUMpositive: Average LUM value of positive drug with a concentration of 10 μM. • LUMvehicle: Average LUM value of negative control group without drug treatment.
The nonlinear regression curve (dose response-variable slope) between the value of inhibition rate (%) and the logarithm of compound concentration was fitted with graphpad prism 8.0, the effect dose curve of compound was drawn, and the IC50 value was calculated.
Y=Bottom+(Top−Bottom)/(1+10^((Log IC50−X)*HillSlope)) • X-axis: logarithm of compound concentration; Y axis: inhibition rate (% inhibition).

Ba/F3 (EGFR^L858R/T790M/C797S) cells, sequence (P00533 whole entry T790M/C797S/L858R): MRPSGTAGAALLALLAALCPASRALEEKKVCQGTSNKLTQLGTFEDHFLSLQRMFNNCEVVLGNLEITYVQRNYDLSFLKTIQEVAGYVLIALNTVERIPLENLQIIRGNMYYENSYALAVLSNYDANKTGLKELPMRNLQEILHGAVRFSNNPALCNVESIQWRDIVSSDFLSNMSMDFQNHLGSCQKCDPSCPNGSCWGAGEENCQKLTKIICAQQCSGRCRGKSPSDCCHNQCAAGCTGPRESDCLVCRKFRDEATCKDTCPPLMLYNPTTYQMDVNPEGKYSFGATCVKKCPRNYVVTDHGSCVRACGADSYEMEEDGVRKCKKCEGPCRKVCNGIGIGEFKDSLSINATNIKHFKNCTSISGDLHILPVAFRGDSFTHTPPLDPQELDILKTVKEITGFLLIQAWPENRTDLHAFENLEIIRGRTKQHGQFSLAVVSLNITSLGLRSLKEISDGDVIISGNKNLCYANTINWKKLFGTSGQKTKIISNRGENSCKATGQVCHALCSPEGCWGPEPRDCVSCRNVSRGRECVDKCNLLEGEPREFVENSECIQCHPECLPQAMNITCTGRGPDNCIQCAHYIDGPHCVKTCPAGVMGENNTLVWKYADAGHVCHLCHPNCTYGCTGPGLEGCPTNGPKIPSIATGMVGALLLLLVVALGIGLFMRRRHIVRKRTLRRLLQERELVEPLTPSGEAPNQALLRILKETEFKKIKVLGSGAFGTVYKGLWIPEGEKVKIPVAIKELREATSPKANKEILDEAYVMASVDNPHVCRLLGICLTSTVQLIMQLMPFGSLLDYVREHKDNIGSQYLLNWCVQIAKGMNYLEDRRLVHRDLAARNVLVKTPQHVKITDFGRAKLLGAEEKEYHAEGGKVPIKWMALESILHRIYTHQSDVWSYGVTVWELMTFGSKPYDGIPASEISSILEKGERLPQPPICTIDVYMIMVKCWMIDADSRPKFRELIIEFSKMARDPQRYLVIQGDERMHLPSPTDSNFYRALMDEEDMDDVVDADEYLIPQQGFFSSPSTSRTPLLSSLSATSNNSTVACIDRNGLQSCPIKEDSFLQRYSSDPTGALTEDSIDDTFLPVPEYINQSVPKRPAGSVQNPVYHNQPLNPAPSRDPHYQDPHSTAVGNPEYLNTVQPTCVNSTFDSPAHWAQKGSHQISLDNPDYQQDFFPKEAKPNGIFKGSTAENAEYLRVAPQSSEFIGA

`COc1cc(N2CCC(N3CCN(CCCC#Cc4cccc5c4CN(C4CCC(=O)NC4=O)C5=O)CC3)CC2)c(NC(=O)/C=C/c2cccs2)cc1Nc1ncc(Cl)c(Nc2ccccc2P(C)(C)=O)n1` (stereo not drawn) [Compound D583, (E)-N-(5-((5-chloro-4-((2-(dimethylphosphoryl)phenyl)amino)pyrimidin-2-yl)amino)-2-(4-(4-(5-(2-(2,6-dioxopiperidin-3-yl)-1-oxoisoindolin-4-yl)pent-4-yn-1-yl)piperazin-1-yl)piperidin-1-yl)-4-methoxyphenyl)-3-(thiophen-2-yl)acrylamide] and `COc1cc(N2CCC(N3CCN(CCCC#Cc4cccc5c4CN(C4CCC(=O)NC4=O)C5=O)CC3)CC2)c(NC(=O)/C=C/CN(C)C)cc1Nc1ncc(Cl)c(Nc2ccccc2P(C)(C)=O)n1` (stereo not drawn) [Compound D555, N-(5-((5-chloro-4-((2-(dimethylphosphoryl)phenyl)amino)pyrimidin-2-yl)amino)-2-(4-(4-(5-(2-(2,6-dioxopiperidin-3-yl)-1-oxoisoindolin-4-yl)pent-4-yn-1-yl)piperazin-1-yl)piperidin-1-yl)-4-methoxyphenyl)-4-(dimethylamino)but-2-enamide] are within 1.5-fold of each other in GI50: 45.6 nM for the first, 67.6 nM for the second.

Going from `C=C(C)C(=O)Nc1cc(Nc2ncc(Cl)c(Nc3ccccc3P(C)(C)=O)n2)c(OC)cc1N1CCC(N2CCN(CCCC#Cc3cccc4c3CN(C3CCC(=O)NC3=O)C4=O)CC2)CC1` (stereo not drawn) [Compound D579, N-(5-((5-chloro-4-((2-(dimethylphosphoryl)phenyl)amino)pyrimidin-2-yl)amino)-2-(4-(4-(5-(2-(2,6-dioxopiperidin-3-yl)-1-oxoisoindolin-4-yl)pent-4-yn-1-yl)piperazin-1-yl)piperidin-1-yl)-4-methoxyphenyl)methacrylamide] to `C=C(Cl)C(=O)Nc1cc(Nc2ncc(Cl)c(Nc3ccccc3P(C)(C)=O)n2)c(OC)cc1N1CCC(N2CCN(CCCC#Cc3cccc4c3CN(C3CCC(=O)NC3=O)C4=O)CC2)CC1` (stereo not drawn) [Compound D597, 2-chloro-N-(5-((5-chloro-4-((2-(dimethylphosphoryl)phenyl)amino)pyrimidin-2-yl)amino)-2-(4-(4-(5-(2-(2,6-dioxopiperidin-3-yl)-1-oxoisoindolin-4-yl)pent-4-yn-1-yl)piperazin-1-yl)piperidin-1-yl)-4-methoxyphenyl)acrylamide], the GI50 rises from 41.4 nM to 460 nM (11-fold).

Going from `CCCC#CC(=O)Nc1cc(Nc2ncc(Cl)c(Nc3ccccc3P(C)(C)=O)n2)ccc1N1CCC(N2CCN(CCCC#Cc3cccc4c3CN(C3CCC(=O)NC3=O)C4=O)CC2)CC1` (stereo not drawn) [Compound D668, N-(5-((5-chloro-4-((2-(dimethylphosphoryl)phenyl)amino)pyrimidin-2-yl)amino)-2-(4-(4-(5-(2-(2,6-dioxopiperidin-3-yl)-1-oxoisoindolin-4-yl)pent-4-yn-1-yl)piperazin-1-yl)piperidin-1-yl)phenyl)hex-2-ynamide] to `CC#CC(=O)Nc1cc(Nc2ncc(Cl)c(Nc3ccccc3P(C)(C)=O)n2)ccc1N1CCC(N2CCN(CCCC#Cc3cccc4c3CN(C3CCC(=O)NC3=O)C4=O)CC2)CC1` (stereo not drawn) [Compound D665, N-(5-((5-chloro-4-((2-(dimethylphosphoryl)phenyl)amino)pyrimidin-2-yl)amino)-2-(4-(4-(5-(2-(2,6-dioxopiperidin-3-yl)-1-oxoisoindolin-4-yl)pent-4-yn-1-yl)piperazin-1-yl)piperidin-1-yl)phenyl)but-2-ynamide], the GI50 falls from 21.2 nM to 10.3 nM (2.1-fold).

Going from `C=C(F)C(=O)Nc1cc(Nc2ncc(Br)c(Nc3ccc4nccnc4c3N(C)S(C)(=O)=O)n2)c(OC)cc1N1CCC(N2CCN(CCCC#Cc3cccc4c3CN(C3CCC(=O)NC3=O)C4=O)CC2)CC1` (stereo not drawn) [Compound D934] to `C=C(F)C(=O)Nc1cc(Nc2ncc(Br)c(Nc3ccc4nccnc4c3NS(C)(=O)=O)n2)c(OC)cc1N1CCC(N2CCN(CCCC#Cc3cccc4c3CN(C3CCC(=O)NC3=O)C4=O)CC2)CC1` (stereo not drawn) [Compound D933], the GI50 falls from 31.9 nM to 12.3 nM (2.6-fold).

Going from `COc1cc(N2CCC(N3CCN(CCCC#Cc4cccc5c4CN(C4CCC(=O)NC4=O)C5=O)CC3)CC2)c(NC(=O)C=C(C)C)cc1Nc1ncc(Cl)c(Nc2ccccc2P(C)(C)=O)n1` (stereo not drawn) [Compound D633, N-(5-((5-chloro-4-((2-(dimethylphosphoryl)phenyl)amino)pyrimidin-2-yl)amino)-2-(4-(4-(5-(2-(2,6-dioxopiperidin-3-yl)-1-oxoisoindolin-4-yl)pent-4-yn-1-yl)piperazin-1-yl)piperidin-1-yl)-4-methoxyphenyl)-3-methylbut-2-enamide] to `COc1cc(N2CCC(N3CCN(CCCCC#Cc4cccc5c4CN(C4CCC(=O)NC4=O)C5=O)CC3)CC2)c(NC(=O)/C=C/CN(C)C)cc1Nc1ncc(Cl)c(Nc2ccccc2P(C)(C)=O)n1` (stereo not drawn) [Compound D556, (E)-N-(5-((5-chloro-4-((2-(dimethylphosphoryl)phenyl)amino)pyrimidin-2-yl)amino)-2-(4-(4-(6-(2-(2,6-dioxopiperidin-3-yl)-1-oxoisoindolin-4-yl)hex-5-yn-1-yl)piperazin-1-yl)piperidin-1-yl)-4-dimethoxyphenyl)-4-(dimethylamino)but-2-enamide], the GI50 rises from 56.5 nM to 582 nM (10-fold).

Compared with `CC#CC(=O)Nc1cc(Nc2ncc(Cl)c(Nc3ccc4nccnc4c3P(C)(C)=O)n2)c(OC)cc1N1CCC(N2CCN(CCCC#Cc3cccc4c3CN(C3CCC(=O)NC3=O)C4=O)CC2)CC1` (stereo not drawn) [Compound D672, N-(5-((5-chloro-4-((5-(dimethylphosphoryl)quinoxalin-6-yl)amino)pyrimidin-2-yl)amino)-2-(4-(4-(5-(2-(2,6-dioxopiperidin-3-yl)-1-oxoisoindolin-4-yl)pent-4-yn-1-yl)piperazin-1-yl)piperidin-1-yl)-4-methoxyphenyl)but-2-ynamide], `C=C(F)C(=O)Nc1cc(Nc2ncc(Cl)c(Nc3ccccc3P(C)(C)=O)n2)c(OC)cc1N1CCC(N2CCN(CCCCCC#Cc3cccc4c3CN(C3CCC(=O)NC3=O)C4=O)CC2)CC1` (stereo not drawn) [Compound D554, N-(5-((5-chloro-4-((2-(dimethylphosphoryl)phenyl)amino)pyrimidin-2-yl)amino)-2-(4-(4-(7-(2-(2,6-dioxopiperidin-3-yl)-1-oxoisoindolin-4-yl)hept-6-yn-1-yl)piperazin-1-yl)piperidin-1-yl)-4-methoxyphenyl)-2-fluoroacrylamide] is 3-fold higher in GI50: 15.1 nM for the first, 45.2 nM for the second.

Going from `COc1cc(N2CCC(N3CCN(CCCCC#Cc4cccc5c4CN(C4CCC(=O)NC4=O)C5=O)CC3)CC2)c(NC(=O)/C=C/C(F)(F)F)cc1Nc1ncc(Cl)c(Nc2ccccc2P(C)(C)=O)n1` (stereo not drawn) [Compound D620, N-(5-((5-chloro-4-((2-(dimethylphosphoryl)phenyl)amino)pyrimidin-2-yl)amino)-2-(4-(4-(6-(2-(2,6-dioxopiperidin-3-yl)-1-oxoisoindolin-4-yl)hex-5-yn-1-yl)piperazin-1-yl)piperidin-1-yl)-4-methoxyphenyl)-4,4,4-trifluorobut-2-enamide] to `CP(C)(=O)c1ccccc1Nc1nc(Nc2ccc(N3CCC(N4CCN(CCCC#Cc5cccc6c5CN(C5CCC(=O)NC5=O)C6=O)CC4)CC3)c(NC(=O)/C=C/C(F)(F)F)c2)ncc1Cl` (stereo not drawn) [Compound D667, (E)-N-(5-((5-chloro-4-((2-(dimethylphosphoryl)phenyl)amino)pyrimidin-2-yl)amino)-2-(4-(4-(5-(2-(2,6-dioxopiperidin-3-yl)-1-oxoisoindolin-4-yl)pent-4-yn-1-yl)piperazin-1-yl)piperidin-1-yl)phenyl)-4,4,4-trifluorobut-2-enamide], the GI50 falls from 46.7 nM to 18.1 nM (2.6-fold).

Going from `CP(C)(=O)c1ccccc1Nc1nc(Nc2cc(NC(=O)/C=C/C(F)(F)F)c(N3CCC(N4CCN(CCCC#Cc5cccc6c5CN(C5CCC(=O)NC5=O)C6=O)CC4)CC3)cc2OCC(F)(F)F)ncc1Br` (stereo not drawn) [Compound D847, (E)-N-(5-((5-bromo-4-((2-(dimethylphosphoryl)phenyl)amino)pyrimidin-2-yl)amino)-2-(4-(4-(5-(2-(2,6-dioxopiperidin-3-yl)-1-oxoisoindolin-4-yl)pent-4-yn-1-yl)piperazin-1-yl)piperidin-1-yl)-4-(2,2,2-trifluoroethoxy)phenyl)-4,4,4-trifluorobut-2-enamide] to `C=CC(=O)Nc1cc(Nc2ncc(Br)c(Nc3ccccc3P(C)(C)=O)n2)c(OC)cc1N1CCC(N2CCN(CCCCC#Cc3cccc4c3CN(C3CCC(=O)NC3=O)C4=O)CC2)CC1` (stereo not drawn) [Compound D479, N-(5-((5-bromo-4-((2-(dimethylphosphoryl)phenyl)amino)pyrimidin-2-yl)amino)-2-(4-(4-(6-(2-(2,6-dioxopiperidin-3-yl)-1-oxoisoindolin-4-yl)hex-5-yn-1-yl)piperazin-1-yl)piperidin-1-yl)-4-methoxyphenyl)acrylamide], the GI50 rises from 16.3 nM to 86.8 nM (5.3-fold).

Compared with `COc1cc(N2CCC(N3CCN(CCCC#Cc4cccc5c4CN(C4CCC(=O)NC4=O)C5=O)CC3)CC2)c(NC(=O)/C=C/C(F)(F)F)cc1Nc1ncc(Cl)c(Nc2ccc3c(c2P(C)(C)=O)OCCO3)n1` (stereo not drawn) [Compound D684], `C=CC(=O)Nc1cc(Nc2ncc(Br)c(Nc3ccccc3P(C)(C)=O)n2)ccc1N1CCC(N2CCN(CCCCCC#Cc3cccc4c3CN(C3CCC(=O)NC3=O)C4=O)CC2)CC1` (stereo not drawn) [Compound D551, N-(5-((5-bromo-4-((2-(dimethylphosphoryl)phenyl)amino)pyrimidin-2-yl)amino)-2-(4-(4-(7-(2-(2,6-dioxopiperidin-3-yl)-1-oxoisoindolin-4-yl)hept-6-yn-1-yl)piperazin-1-yl)piperidin-1-yl)phenyl)acrylamide] is 1.7-fold lower in GI50: 24.1 nM for the first, 14.5 nM for the second.
